We go through four molecules from patent publication US8394959B2, “Maleate salts of (E)-N-{4-[3-chloro-4-(2-pyridinylmethoxy)anilino]-3-cyano-7-ethoxy-6-quinolinyl)-4-(dimethylamino)-2-buteramide and crystalline forms thereof” (Wyeth LLC, priority 2007, dated 2013).

Read-outs that look alike come from different tables or passages of the source.

Data set [1] can be described thus: Salt form screen: physicochemical properties (solubility, pH, hygroscopicity). Particulars: for pH: Table 1, pH of the solution.
For data set [2] the following is noted: 20-25° C., relative humidity 50-60%, 24 hours, XRD.
Procedure: FIG. 7 illustrates an XRD scan of crystalline (E)-N-{4-[3-chloro-4-(2-pyridinylmethoxy)anilino]-3-cyano-7-ethoxy-6-quinolinyl}-4-(dimethylamino)-2-butenamide maleate in Form II, before and after exposure to relative humidity of 50-60% at an ambient temperature of 20-25° C. for 24 hours.
FIG. 8 is an XRD scan of crystalline (E)-N-{4-[3-chloro-4-(2-pyridinylmethoxy)anilino]-3-cyano-7-ethoxy-6-quinolinyl}-4-(dimethylamino)-2-butenamide maleate in Form I before (lower scan), and after (upper scan) exposure to relative humidity of 50-60% at room temperature of 20-25° C. for 24 hours.
A short description of data set [3]: Solid state stability in closed and open containers at 40° C. and 75% RH. Particulars: closed and open containers at 40° C. and 75% RH. Format: physicochemical. The source says: Both Form I and Form II remained stable for 6 months under these conditions. […] Samples in the closed containers remained dry. HPLC purity analysis indicated no significant increase in degradation products in both open and closed conditions for up to 6 months.

Data set [4] is described as follows: Dynamic vapor sorption (DVS) hygroscopicity. Particulars: DVS isotherm, FIG. 2; especially at 10% RH and below. The class given is physicochemical. From the text: The relative stability and hygroscopicity of the two crystalline forms of the maleate salt was studied in detail by dynamic vapor sorption (DVS).
In data set [5] the test system is emectic receptors in the stomach. The data set is described as follows: Emectic receptor interaction / diarrhea in mammals. Format: in vivo. Particulars: in words.
A short description of data set [6]: Physicochemical properties of maleate salt pilot batches. Particulars: for Aqueous Solubility: footnote: s the free base.
The nature of data set [7]: Compound pharmacokinetics (systemic exposure) in rats. Format: in vivo, rat. More on the design: AUC/Dose: unit not given here. To be noted: for Cmax / AUC(0-t): plasma; for Cmax / AUC(0-t) / AUC/Dose: Day 28, mean (SE), N 3; for AUC(0-t): read-out: AUC0-24.
The nature of data set [8]: Solubility comparison of free base and maleate salt.
The mark [9] stands for this setting: pilot batch Run 1, batch size 0.5 g.
Where [10] appears, read: pilot batch Run 2, batch size 6.6 g.
Setting [11] is: pilot batch Run 3, batch size 4 g.

As for Tosylate, the pH in data set [1] (salt screen) is reported as 4.72. Besides, the solubility in data set [1] (salt screen, Table 1, water) worked out at 6.89 mg/g.

`CCOc1cc2ncc(C#N)c(Nc3ccc(OCc4ccccn4)c(Cl)c3)c2cc1NC(=O)/C=C/CN(C)C.O.O=C(O)/C=C\C(=O)O` [Form II]: the “form stability on exposure to ambient humidity” value in data set [2] was “relatively stable”. For the same molecule, the time remained stable in data set [3] is on record as 6 months. Also, in data set [4], the “relative humidity at which water is lost” value was at most 20 % RH.

The Cmax is the peak of the concentration-time curve. As for `CCOc1cc2ncc(C#N)c(Nc3ccc(OCc4ccccn4)c(Cl)c3)c2cc1NC(=O)/C=C/CN(C)C.O=C(O)/C=C\C(=O)O` [Maleate salt], in data set [5], the “emectic receptor interaction / diarrhea” value is listed as “minimizes emectic receptor interactions in mammals”. The “Solution pH” value in data set [6] (setting [9]) was found to be 5.11; in data set [6] (setting [10]), 5.10; in data set [6] (setting [11]), 5.15. Also, the “Aqueous Solubility” value in data set [6] (setting [9]) is recorded as 0.37 mg/g; in data set [6] (setting [10]) it was 0.50 mg/g; in data set [6] (setting [11]), 0.44 mg/g. Further, the Cmax in data set [7] (oral, rat Female, 5 mg/kg) came out at 1380 ng/mL; in data set [7] (oral, rat Male, 5 mg/kg) it was 1200 ng/mL; in data set [7] (rat Female, 15 mg/kg), 3560 ng/mL; in data set [7] (rat Female, 45 mg/kg) it was 4560 ng/mL; in data set [7] (rat Male, 15 mg/kg), 3420 ng/mL; in data set [7] (rat Male, 45 mg/kg), 4620 ng/mL. The AUC(0-t) in data set [7] (oral, rat Female, 5 mg/kg) came to 9530 ng·h/mL; in data set [7] (oral, rat Female, 45 mg/kg), 75600 ng·h/mL; in data set [7] (oral, rat Male, 5 mg/kg), 8220 ng·h/mL; in data set [7] (oral, rat Male, 45 mg/kg) it was 65100 ng·h/mL; in data set [7] (rat Female, 15 mg/kg), 34200 ng·h/mL; in data set [7] (rat Male, 15 mg/kg), 30200 ng·h/mL. Moreover, the AUC/Dose in data set [7] (rat Female, 5 mg/kg) is 1907 (169); in data set [7] (rat Female, 15 mg/kg), 2278 (177); in data set [7] (rat Female, 45 mg/kg) it was 1681 (141); in data set [7] (rat Male, 5 mg/kg) it was 1645 (126); in data set [7] (rat Male, 15 mg/kg) it was 2014 (178); in data set [7] (rat Male, 45 mg/kg), 1446 (106). In addition, the “increase in AUC as compared to the free base” value in data set [7] (rat, dose range of 5 to 45 mg/kg) is “two-fold”. Moreover, the solubility in data set [8] (2% Tween 80 in water, aqueous with cosolvent or surfactant or cyclodextrin) was found to be 1120 µg/mL; in data set [8] (water, pH 5, water), 430 µg/mL; in data set [1] it was 0.37 mg/g. For the same molecule, the “pH of solution in 2% Tween 80 in water” value in data set [8] (solvent 2% Tween 80 in water) was “(pH 5.06)”. For the same molecule, the “pH of solution in Water” value in data set [8] (solvent water) is reported as “(pH 5.00)”. Moreover, in data set [1] (salt screen), the pH came to 5.11. In data set [1] (salt screen, in words), the hygroscopicity entry is given as “less hygroscopic”.

On to Fumarate, for which the pH in data set [1] (salt screen) is listed as 3.53.
